These results are taken from patent US12240840B2, “Amide-substituted heterocyclic compounds for the treatment of conditions related to the modulation of IL-12, IL-23 and/or IFN-alpha” (BRISTOL-MYERS SQUIBB COMPANY, priority 2018, dated 2025).

What is called IC50 is the concentration that inhibits the measured activity by half.

For this assay, the system named is IFNα-induced pSTAT5 (pY694) in CD3 positive cells of human whole blood. The experiment in a line: IFNα-Induced STAT Phosphorylation in Human Whole Blood. The format is cell-based. The note with it: Homo sapiens, 1 h compound incubation, 1000 U/mL recombinant human IFNα A/D for 15 min, pSTAT5 in CD3 positive population, read-out: Human WB IFNα-Induced Stat Phosph. (IC50). In short, it runs like this:
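Read-out is median fluorescence intensity of pSTAT5 (pY694) in the CD3-positive gate, by flow cytometry after fix/lyse and permeabilization. Before that, whole human blood anticoagulated with EDTA or ACD-A received compound for an hour and 1000 U/mL IFNα A/D for 15 min.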
On to `[2H]C([2H])([2H])NC(=O)c1nnc(NC(=O)C2CC2)cc1Nc1cccc(-c2ncc(C(=O)N(C)CC)s2)c1OC` [Example 291], for which the IC50 stood at 110 nM.

As to `[2H]C([2H])([2H])NC(=O)c1nnc(NC(=O)C2CC2)cc1Nc1cccc(-c2nc([C@H](COC(C)=O)NC(C)=O)no2)c1OC` [Example 200], the IC50 stood at 760 nM.

Consider `[2H]C([2H])([2H])NC(=O)c1nnc(NC(=O)C2CC2)cc1Nc1cccc(-c2nc(CN(C)C(=O)CC#N)no2)c1OC` [Example 171], for which the half-maximal inhibitory concentration (IC50) worked out at 690 nM.

Consider `[2H]C([2H])([2H])NC(=O)c1nnc(NC(=O)C2CC2)cc1Nc1cccc(-c2ncc(CC(=O)N(C)C)s2)c1OC` [Example 256], for which the concentration for half-maximal inhibition (IC50) was found to be 130 nM.

Take `[2H]C([2H])([2H])NC(=O)c1nnc(NC(=O)C2CC2)cc1Nc1cccc(-c2ncc(C(=O)N3CCN(C(C)C)CC3)s2)c1OC` [Example 295]: the IC50 was determined as 60 nM.

Regarding `COCCN1CCN(Cc2cnc(-c3cccc(Nc4cc(NC(=O)C5CC5)nnc4C(N)=O)c3OC)s2)CC1` [Example 399], the IC50 was found to be 180 nM.

For the molecule `[2H]C([2H])([2H])NC(=O)c1nnc(NC(=O)C2CC2)cc1Nc1cccc(-c2nc([C@H](CO)NC(=O)CC)no2)c1OC` [Example 198], the IC50 was 1650 nM.

`[2H]C([2H])([2H])NC(=O)c1nnc(NC(=O)C2CC2)cc1Nc1cccc(-c2cnn(CCNS(C)(=O)=O)n2)c1OC` [Example 434]: the IC50 stood at 160 nM.

In the case of `[2H]C([2H])([2H])NC(=O)c1nnc(NC(=O)C2CC2)cc1Nc1cccc(-c2ncc(C(=O)NCCN3CCCC(F)C3)s2)c1OC` (stereo not shown) [Example 347], the IC50 came to 13 nM.

As to `[2H]C([2H])([2H])NC(=O)c1cnc(NC(=O)C2CC2)cc1Nc1cccc(-c2cnn(CCNS(C)(=O)=O)n2)c1OC` [Example 436], the IC50 was 300 nM.

On to `[2H]C([2H])([2H])NC(=O)c1nnc(NC(=O)C2CC2)cc1Nc1cccc(-c2ncc(C(=O)NCCCCC)s2)c1OC` [Example 316], for which the IC50 came to 330 nM.

With `[2H]C([2H])([2H])NC(=O)c1nnc(NC(=O)C2CC2)cc1Nc1cccc(-c2ncc(C(=O)N[C@H]3C[C@H]4CC[C@@H](C3)N4C)s2)c1OC` [Example 338], the IC50 was 420 nM.

Take `[2H]C([2H])([2H])NC(=O)c1nnc(NC(=O)C2CC2)cc1Nc1cccc(-c2ncc(NC(=O)OC(C)(C)C)s2)c1OC` [Example 281]: the IC50 is more than 10000 nM.

Regarding `COc1c(Nc2cc(NC(=O)C3CC3)ncc2C(N)=O)cccc1-c1nc(CN2CCOCC2)no1` [Example 576, 6-(cyclopropanecarboxamido)-4-((2-methoxy-3-(3-(morpholinomethyl)-1,2,4-oxadiazol-5-yl)phenyl)amino)nicotinamide], the half-inhibitory concentration (IC50) was found to be 13 nM.

Consider `[2H]C([2H])([2H])NC(=O)c1cnc(NC(=O)C2CC2)cc1Nc1cccc(-c2noc(CCOC)n2)c1OC` [Example 90], for which the IC50 was 60 nM.

As for `COc1c(Nc2cc(NC(=O)C3CC3)nnc2C(N)=O)cccc1-c1ncc(C(=O)N(C)C)s1` [Example 246], the IC50 stood at 30 nM.

Consider `[2H]C([2H])([2H])NC(=O)c1nnc(NC(=O)C2CC2)cc1Nc1cccc(-c2ncc(NC(=O)COC)s2)c1OC` [Example 283], for which the IC50 stood at 360 nM.

Consider `[2H]C([2H])([2H])NC(=O)c1nnc(NC(=O)C2CC2)cc1Nc1cccc(-c2nc([C@@H](N)[C@@H](C)O)no2)c1OC` [Example 189], for which the IC50 came to 100 nM.

For `[2H]C([2H])([2H])NC(=O)c1nnc(NC(=O)C2CC2)cc1Nc1cccc(-c2noc(CO)n2)c1OC` [Example 69], the half-maximal inhibitory concentration (IC50) was 30 nM.

For the molecule `COc1c(Nc2cc(NC(=O)C3CC3)nnc2C(N)=O)cccc1-c1noc(CN(C)C)n1` [Example 63], the IC50 stood at 30 nM.

As to `[2H]C([2H])([2H])NC(=O)c1nnc(NC(=O)C2CC2)cc1Nc1cccc(-c2ncc(C(=O)NC3CCC(N(C)C)CC3)s2)c1OC` (stereo not shown) [Example 307], the IC50 stood at 30 nM.

Take `[2H]C([2H])([2H])NC(=O)c1nnc(NC(=O)C2CC2)cc1Nc1cccc(-c2nc(CN3CC4CN(C(C)=O)CC4C3)no2)c1OC` (stereo not shown) [Example 233]: the IC50 was found to be 100 nM.

Regarding `COc1c(Nc2cc(NC(=O)C3CC3)nnc2C(N)=O)cccc1-c1ncc(CC(=O)N(C)C)s1` [Example 243], the IC50 worked out at 90 nM.

Consider `[2H]C([2H])([2H])NC(=O)c1nnc(NC(=O)C2CC2)cc1Nc1cccc(-c2nc([C@@H](COC(C)(C)C)NC(=O)OC(C)(C)C)no2)c1OC` [Example 219], for which the IC50 worked out at 5240 nM.

With `[2H]C([2H])([2H])NC(=O)c1nnc(NC(=O)C2CC2)cc1Nc1cccc(-c2noc(CN3CCC(O)CC3)n2)c1OC` [Example 83], the IC50 was 110 nM.

Regarding `[2H]C([2H])([2H])NC(=O)c1nnc(NC(=O)C2CC2)cc1Nc1cccc(-c2ncc(C(=O)N3CCCN(C)CC3)s2)c1OC` [Example 294], the concentration for half-maximal inhibition (IC50) came to 70 nM.

For `[2H]C([2H])([2H])NC(=O)c1nnc(NC(=O)C2CC2)cc1Nc1cccc(-c2cc(C(=O)NCCC#N)n(C)n2)c1OC` [Example 477], the IC50 turned out to be 1100 nM.

Turning to `[2H]C([2H])([2H])NC(=O)c1nnc(NC(=O)C2CC2)cc1Nc1cccc(-c2cc(C(=O)NCC34CCN(CC3)CC4)n(C)n2)c1OC` [Example 504], the IC50 was more than 10000 nM.

`[2H]C([2H])([2H])NC(=O)c1nnc(NC(=O)C2CC2)cc1Nc1cccc(-c2ncc(C(=O)N3C4CCC3CN(C)C4)s2)c1OC` [Example 288]: the half-maximal inhibitory concentration (IC50) is 90 nM.

As for `[2H]C([2H])([2H])NC(=O)c1nnc(NC(=O)C2CC2)cc1Nc1cccc(-c2nc([C@@H](C)NC(C)=O)no2)c1OC` [Example 194], the IC50 was 160 nM.

`COc1c(Nc2cc(NC(=O)C3CC3)nnc2C(N)=O)cccc1-c1ncc(C(=O)N2CCCCC2)s1` [Example 403]: the IC50 amounted to 190 nM.

In the case of `COc1c(Nc2cc(NC(=O)C3CC3)nnc2C(N)=O)cccc1-c1noc(CN(C2CC2)S(C)(=O)=O)n1` [Example 60], the IC50 was found to be 23 nM.

Turning to `[2H]C([2H])([2H])NC(=O)c1nnc(NC(=O)C2CC2)cc1Nc1cccc(-c2ncc(C(=O)NCC(C)C)s2)c1OC` [Example 310], the IC50 is more than 10000 nM.

In the case of `[2H]C([2H])([2H])NC(=O)c1nnc(NC(=O)C2CC2)cc1Nc1cc(F)cc(-c2cc(C(=O)N(C)CCN(C)C)n(C)n2)c1OC` [Example 514], the IC50 was found to be 870 nM.

Consider `[2H]C([2H])([2H])NC(=O)c1nnc(NC(=O)C2CC2)cc1Nc1cccc(-c2nc(CNC(=O)CNC)no2)c1OC` [Example 154], for which the 50% inhibitory concentration (IC50) was 1110 nM.

As to `[2H]C([2H])([2H])NC(=O)c1nnc(NC(=O)C2CC2)cc1Nc1cccc(-c2ncc(C(=O)N3CCC(N4CCCCC4)CC3)s2)c1OC` [Example 351], the IC50 was determined as 60 nM.

`[2H]C([2H])([2H])NC(=O)c1nnc(NC(=O)C2CC2)cc1Nc1cccc(-c2nc([C@H](NC(=O)CC)[C@H](C)O)no2)c1OC` [Example 208]: the IC50 worked out at 1270 nM.

As to `[2H]C([2H])([2H])NC(=O)c1nnc(NC(=O)C2CC2)cc1Nc1cccc(-c2ncc(CC(=O)NCCC3CCCN3C)s2)c1OC` (stereo not shown) [Example 254], the IC50 stood at 5430 nM.

Regarding `COc1c(Nc2cc(NC(=O)C3CC3)nnc2C(N)=O)cccc1-c1noc(CNS(=O)(=O)C2CC2)n1` [Example 49], the IC50 turned out to be 50 nM.

Take `[2H]C([2H])([2H])NC(=O)c1nnc(NC(=O)C2CC2)cc1Nc1cccc(-c2ncc(C(=O)NCC(C)(C)CN(C)C)s2)c1OC` [Example 339]: the IC50 was found to be 40 nM.
